One data set deals with Meloidogyne incognita. The settings on record: cited from earlier work.
Another data set concerns Caenorhabditis elegans. The note with it: cited from earlier work.
The next data set is described as follows: in vitro. From the text:
The non-target species, C. elegans wild-type strain N2 Bristol (courtesy of Dr. G.L. Sutphin, University of Arizona) and Rhabditis blumi DF5010 (Caenorhabditis Genetics Center, University of MN, USA) were maintained in vitro in nematode growth medium (NGM) agar plates seeded with Escherichia coli (Migula) Castellani and Chalmers, strain OP-50, as described previously ([52]). Mixed juveniles and hermaphrodites (5 to 6 days old) were collected from the culture plates prior to the bioassays. Infective third-stage juveniles (IJs) of three non-target entomopathogenic nematode species (H. sonorensis Caborca strain, H. bacteriophora TT01 strain, and Steinernema carpocapsae All strain) were also maintained by rearing them in vivo using wax moth larvae (Galleria mellonella) as the host, according to procedures described previously ([53]), and collected for bioassays within 2 to 4 days of their emergence from nematode-infected cadavers. Nematode population density (number of nematodes per ml) was standardized prior to setting up well-plate bioassays, by adjusting each nematode suspension to a concentration of 100 nematodes in 20 μL of distilled water.
(§1) Twelve-well tissue culture plates were used as the experimental arena. For each of the tested nematode species, an inoculum of 100 nematodes, suspended in 20 μL distilled water, was added to each well. […] For PPA (Enamine) and indole (Alfa Aesar), 13 incremental concentrations were tested ranging from 10 to 400 μg/mL in 1 mL of distilled water (DMSO ≤ 1%; vol/vol). […] Distilled water with 1% DMSO was used as the negative control. To measure the combined nematicidal effects of the three SMs, equal concentrations of two or three SMs were mixed in 1:1 or 1:1:1 mixture. For example, a 20 μg/mL solution of a two-SM mixture contained 20 μg from metabolite A and 20 μg metabolite B, dissolved in 1 mL distilled water. Individual or combined SMs from 10 μg/mL to 200 μg/mL (in 20 μg/ml increments) were prepared in distilled water (DMSO ≤ 1%; vol/vol) and used for the bioassays.
(§2) The well plates were covered with their lids and incubated at 25°C in the dark. For the targeted nematode species, nematicidal activity was recorded at 24 h, 48 h, and 72 h after initial exposure to the individual SMs. For the non-target species, data were only recorded at 24 h after initial exposure to the individual SMs. For SM mixtures, mortality was recorded 24 h after initial exposure of the targeted nematode species. Nematodes were probed with a needle to assess if they were alive, dead, or paralyzed. […] Those nematodes that resumed activity upon probing were considered to suffer from temporary paralysis (impaired motility). Paralyzed nematodes were rinsed at least three times in distilled water and held for an additional 24 h to check for their recovery from temporarily paralysis. […] Experiments were repeated at least three times per treatment for each concentration tested.
(§3) For the toxicity data visualization, the relationship between percent mortality or temporary paralysis and metabolite concentration were described by a sigmoidal curve, which was fitted by the logistical function using the statistical software package SigmaPlot for Windows, version 14.0 (Systat Software Inc.). […] Concentration-response data of single metabolites or SM mixtures were pooled for each concentration and subjected to probit regression analysis using the Polo Plus program (LeOra Software). The LC or EC values, along with the corresponding 95% confidence intervals, were estimated for each single SM or SM mixture at each exposure time, depending on the experimental setting.

Data set [1] concerns Meloidogyne incognita J2 juveniles. Kind of data set: microbe, parasite or virus in culture. The note with it: for LC50 / LC10 / LC25 / LC90: mortality.
Text: (§4) Only soil inhabiting (free-living or infective) stages of target and non-target nematode species were considered in the present study. All nematode cultures (except T. semipenetrans) were maintained in the Stock laboratory (University of Arizona). M. incognita was reared in planta using susceptible tomato plants (cv. Roma VF; seedlings with five or six true leaves; courtesy of Dr. J. Brown, University of Arizona). Eggs of M. incognita were extracted from infected tomato plant roots, and J2 were collected after hatching, following the procedures of Atamian et al. ([50]). T. semipenetrans was isolated from infested lemon orchards at the Yuma Agricultural Center, University of Arizona (Yuma, AZ, USA). Eggs of T. semipenetrans were extracted from infected lemon tree roots using the procedures of El-Borai et al. ([51]), and J2 were collected using the same procedure as that described for M. incognita.
as §1, §2, §3

Data set [2] has as its system Tylenchulus semipenetrans J2 juveniles. In words: microbe, parasite or virus in culture. The settings on record: mortality.
Text: as §4, §1, §2, §3

The test system of data set [3] is non-target nematodes versus targeted PPNs. In words: Selectivity index, non-target nematodes over targeted PPNs. The settings on record: 24 h LC50. On the procedure: The selectivity index of a given SM was calculated by dividing the averages of the LC50 or EC50 values obtained against each of the selected non-target nematodes by the LC50 or the EC50 values observed for each of the targeted PPN tested.

Data set [4] is described as follows: In vitro nematicidal assay, values summarised over the non-target nematodes. The data set is classed as cell-based. The note with it: non-target nematodes in 12-well tissue culture plates; 24 h exposure; species for which an LC50 was established; read-out: LC50 values, range over non-target nematodes.
In data set [5] the test system is HFF cells (human foreskin cells). In words: MTT cytotoxicity assay. It counts as cell-based. The settings on record: tested at 50, 100, 200 μM, data not shown. The method, then:
(§5) The non-cancerous HFF cells (human foreskin cells) and three human cancer cell lines, NCI-H460 (non-small cell lung cancer), SF-268 (central nervous system glioma), and MCF-7 (breast cancer) were used to evaluate the in vitro cytotoxicity of the isolated Photorhabdus SMs. The MTT (3-(4,5-dimethylthiazol-2-yl)-2,5-diphenyltetrazolium bromide) colorimetric method ([54]) was used with doxorubicin as the positive control, and DMSO as the negative control. Photorhabdus SMs were tested at 50, 100, and 200 μM concentrations, and the assays were repeated three times.
A general note: Formazan colour is commonly taken as a measure of viable cells.

In a further data set the test system is MCF-7 (breast cancer). In words: MTT cytotoxicity assay. The note with it: tested at 50, 100, 200 μM, data not shown. The data set is classed as cell-based, human. On the procedure: as §5
Data set [6] relates to SF-268 (central nervous system glioma). Kind of data set: MTT cytotoxicity assay. It counts as cell-based, human. The note with it: tested at 50, 100, 200 μM, data not shown. On the procedure:
as §5

Data set [7] concerns NCI-H460 (non-small cell lung cancer). In words: MTT cytotoxicity assay. The data set is classed as cell-based, human. The note with it: tested at 50, 100, 200 μM, data not shown. On the procedure: as §5

In brackets after ≈: the same amount, converted by molar mass.

On to `CC(C)c1c(O)cc(C=Cc2ccccc2)cc1O` [3,5-dihydroxy-4-isopropylstilbene], for which the Nematicidal activity result in the data set with Meloidogyne incognita is listed as “no activity”. The “Toxicity to non-target bacterivorous nematode” value in the data set with Caenorhabditis elegans is reported as “toxic at similar concentrations (up to 100 μg/ml)”.

By LC50 is commonly meant the concentration that kills 50% of the test population. For `O=C(O)CC/C=C/c1ccccc1` [PPA, (4E)-5-phenylpent-4-enoic acid], the median lethal concentration (LC50) at 24 h in the data set “in vitro” (All, Steinernema carpocapsae) is > 400 mg/L; in “in vitro” (Caborca, Heterorhabditis sonorensis), > 400 mg/L; in “in vitro” (DF5010, Rhabditis blumi), 346 mg/L (≈ 1960 µM); in “in vitro” (N2 Bristol, Caenorhabditis elegans), 278 mg/L (≈ 1580 µM); in the data set “in vitro” (TT01, Heterorhabditis bacteriophora), > 400 mg/L; in data set [4], 278 to 421 mg/L (≈ 1580 to 2390 µM). In data set [1] (24 h postexposure), the “Reduction of LC50 for M. incognita versus T. semipenetrans” value was 33%. The LC50 in data set [1] (Meloidogyne incognita, 24 h, 24 h exposure) is 44 mg/L (≈ 250 µM); in data set [1] (Meloidogyne incognita, 48 h, 48 h exposure), 42 mg/L (≈ 238 µM); in data set [1] (Meloidogyne incognita, 72 h, 72 h exposure), 38.9 mg/L (≈ 221 µM); in data set [1] (24 h exposure), 44.4 mg/L (≈ 252 µM); in data set [2] (Tylenchulus semipenetrans, 24 h, 24 h exposure), 66 mg/L (≈ 375 µM); in data set [2] (Tylenchulus semipenetrans, 48 h, 48 h exposure), 59.8 mg/L (≈ 339 µM). Besides, the LC50 in [2] (Tylenchulus semipenetrans, 72 h, 72 h exposure) amounted to 42.2 mg/L (≈ 239 µM); in [2] (24 h exposure), 66.3 mg/L (≈ 376 µM). For the same compound, the LC10 in data set [1] (24 h exposure) is 29.4 (22.1, 34.6) μg/mL; in data set [1] (48 h exposure), 27.6 (19.0, 33.3) μg/mL; in data set [1] (72 h exposure), 24.8 (16.0, 31.0) μg/mL; in data set [2] (24 h exposure) it was 50.8 (27.0, 60.5) μg/mL; in [2] (48 h exposure) it was 42.7 (31.2, 50.0) μg/mL; in [2] (72 h exposure) it was 19.3 (3.06, 31.9) μg/mL. Further, the LC25 in data set [1] (24 h exposure) was 35.8 (29.0, 40.5) μg/mL; in data set [1] (48 h exposure), 33.6 (25.7, 39.0) μg/mL; in [1] (72 h exposure) it was 30.7 (22.0, 36.6) μg/mL; in data set [2] (24 h exposure), 57.6 (36.6, 66.0) μg/mL; in data set [2] (48 h exposure), 50.1 (39.8, 56.6) μg/mL; in data set [2] (72 h exposure) it was 28.0 (8.0, 42.7) μg/mL. Besides, the LC90 in data set [1] (24 h exposure) is listed as 66.9 (61.4, 75.5) μg/mL; in [1] (48 h exposure), 63.9 (57.2, 75.9) μg/mL; in data set [1] (72 h exposure) it was 61.0 (52.7, 76.5) μg/mL; in [2] (24 h exposure), 86.4 (78.2, 109.0) μg/mL; in data set [2] (48 h exposure), 83.7 (76.3, 96.6) μg/mL; in data set [2] (72 h exposure), 92.4 (60.6, 312.0) μg/mL. In addition, in [3], the “Selectivity index (LC50 for the non-target nematodes over those for the targeted PPNs)” value was in the range of 6 to 8.

Take `O=C(O)/C=C/c1ccccc1` [t-CA, trans-cinnamic acid]: the “In vitro cytotoxicity: none even at the highest concentration tested” value (in data set [5]; in the data set with MCF-7 (breast cancer); in data set [6]; in [7]) was > 200 µM each time. Besides, the “Reduction of the LC90 at 72 h versus 24 h” value in data set [1] (M. incognita) is given as 34%. The LC10 in data set [1] (24 h exposure) is recorded as 42.7 (25.6, 52.2) μg/mL; in [1] (48 h exposure), 37.3 (19.1, 47.2) μg/mL; in data set [2] (24 h exposure), 53.1 (41.2, 61.2) μg/mL; in data set [2] (48 h exposure), 51.5 (39.7, 59.1) μg/mL. Further, the LC25 in data set [1] (24 h exposure) is recorded as 53.0 (38.0, 61.6) μg/mL; in [1] (48 h exposure), 45.7 (29.0, 55.1) μg/mL; in [1] (72 h exposure), 45.2 (37.7, 50.4) μg/mL; in [2] (24 h exposure), 62.8 (52.2, 70.0) μg/mL; in data set [2] (48 h exposure), 60.0 (49.6, 66.6) μg/mL; in data set [2] (72 h exposure) it was 54.9 (44.4, 61.8) μg/mL. Further, the LC90 in data set [1] (24 h exposure) is 106.0 (89.6, 159.0) μg/mL; in [1] (48 h exposure), 87.9 (73.0, 137.0) μg/mL; in data set [1] (72 h exposure), 69.7 (62.6, 82.9) μg/mL; in data set [2] (24 h exposure) it was 108.0 (100.0, 121.0) μg/mL; in data set [2] (48 h exposure) it was 98.0 (90.7, 110.0) μg/mL; in [2] (72 h exposure) it was 95.8 (88.2, 108.0) μg/mL.
